Data from patent publication US20110171294A1, “Enzyme composition and application thereof in the treatment of pancreatic insufficiency” (DSM IP ASSETS B.V., priority 2008, published 2011).
Non-standard residues stand in square brackets, D forms with d. Residues, ends and D or L forms follow the SMILES beside them. *: point of attachment. Sta = CC(C)C[C@H](N)[C@@H](O)CC(=O)O; Isovaleryl = CC(C)CC(=O)*

Legend:
[1] = system: proline specific protease; assay: Effect of pepstatin on the proline specific protease; type: biochemical, Aspergillus niger; conditions: pepstatin 1.67 microgram/ml
Experimental: Prerequisite for a successful enzyme therapy according to the present application is an efficient degradation of dietary proteinaceous material in the stomach. […] Citrate/HCl buffers of 0.2 mol/l were used for obtaining the required acid pH conditions. […] Residual activities of the proline specific protease were measured kinetically at 405 nm using the synthetic substrates Ala-Ala-Pro-pNA (Bachem, Switzerland). […] Absorbance was measured kinetically for 10 min at 405 nm at 30° C. making use of a TECAN Genios MTP Reader (Salzburg, Vienna).

Sodium caseinate = assay: Casein hydrolysis under simulated stomach conditions (visual impression, di-/tripeptides, free amino acids); type: biochemical; conditions: 2.5 mg/ml caseinate suspension, pH 4.0, 37 degrees C., 0.25 mg/ml of each enzyme

Row | Compound | inhibitory effect on the proline specific protease [1] | Visual impression after 45″ (Sodium caseinate) | Visual impression after 90″ (Sodium caseinate)
1 | CC(C)CC(=O)N[C@H](C(=O)N[C@H](C(=O)N[C@@H](CC(C)C)[C@@H](O)CC(=O)N[C@@H](C)C(=O)N[C@@H](CC(C)C)[C@@H](O)CC(=O)O)C(C)C)C(C)C [pepstatin, Pepstatin] (Isovaleryl-VV[Sta]A[Sta]-OH) | no inhibitory effect | – | –
2 | Pepsin: gastric aspartic endoprotease (EC 3.4.23.1) from porcine stomach mucosa, Sigma | – | turbid | clear
